One test concerns rat washed platelets. Briefly: Platelet aggregation of rat washed platelets. Conditions: 1 U/mL human thrombin, 1 μM human CatG or 1 mM RA-11mer. The test is classed as cell-based. As for the experimental part:
(§1) Platelet and neutrophil isolation. Platelets and neutrophils were isolated as previously described (Yost et al., J Clin Invest. 2016; 126(10):3783-3798). Platelet isolation from dogs, rats and mice was approved by the IACUC. Platelet activation and aggregation were performed as previously described (Manne et al., Blood. 2020; 136(11): 1317-1329).
(§2) Platelet isolation, aggregation, and activation. Human washed platelets were prepared and resuspended in Tyrode's Buffer at 2×10^8/mL as described (Edelstein et al., Nat Med. 2013; 19(12):1609-1616). For human and dog platelet comparisons, platelets were prepared using a modified human platelet protocol with final concentrations of […] (Cayman Chemical, Ann Arbor, MI, USA) used during centrifugation steps. Centrifugations after Tyrode's washes was decreased to 1,250×g as described in Cremer et al., PLOS One. 2019; 14(11): e0224891. Platelet aggregation was measured under stirring conditions at 37° C. using a PAP-8E aggregometer after treatment with the following agonists: arachidonic acid (Bio/Data Corporation, Horsham, PA, USA), cathepsin G, elastase, proteinase 3 (Athens Research Group), α-thrombin (Sigma, St. Louis, MO, USA), PAR-1 peptide (SFLLRN) (GL Biochem, China). P-selectin and PAC-1 were measured as previously described (Yee et al., J Thromb Haemost. 2006; 4(9):2043-2050; Tourdot et al., Arterioscler Thromb Vasc Biol. 2014; 34(12):2644-2650).

The target of the next test is T1, PAR4-C (SEQ ID NO: 8) (Homo sapiens, UniProt Q96RI0).
T1 construct: purchased BIOMATIK (Wilmington, DE, USA); host or cells: chemical synthesis
T1 sequence (Q96RI0 57-78 limits assumed): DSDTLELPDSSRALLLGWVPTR
Briefly: PAR4 peptide cleavage analysis by LC-MS/MS, PAR4-C. In kind it is biochemical. Conditions: CatG 400 nM, 37° C., 15 minutes; thrombin. How it is done: PAR-4 Peptide and Cleavage Analysis. PAR4 synthetic peptides were incubated with protease, snapped frozen, and sent for mass spectrometry analysis. PAR-4B ([…]; SEQ ID NO: 7) and PAR-4C ([…]; SEQ ID NO: 8) were synthesized by BIOMATIK (Wilmington, DE, USA). PAR4-B and PAR4-C were incubated with vehicle, thrombin (100 nM) or cathepsin G (400 nM) at 37° C. for 15 minutes to an hour depending on the experimental condition. After digestion with the indicated protease, reactions were snapped frozen and sent to the University of Arizona, Analytical and Biological Mass Spectrometry Core Facility (Tucson, Arizona) for analysis. LC-MS/MS analysis was done on a Q Exactive Plus mass spectrometer (Thermo Fisher Scientific, San Jose, CA) equipped with an EASY-Spray nanoESI source. […] The peptide identification results were further analyzed with Scaffold Q+S v 4.8.7 (Proteome Software Inc., Portland OR), a program that relies on various search engine results (i.e.: Sequest, X!Tandem, MASCOT) and which uses Bayesian statistics to reliably identify more spectra9.

Another test has as its system dog washed platelets. Briefly: Platelet aggregation of dog washed platelets. In kind it is cell-based. Conditions: 1 U/mL human thrombin, 1 μM human CatG or 1 mM RA-11mer.
Text: Animal studies. Mouse platelets were isolated as previously described from C57BL/6 mice (Denorme et al., Blood. 2020; 135(6):429-440). Dog platelets were isolated from whole blood drawn into ACD using a similar isolation procedure as for human platelets. All animal studies were approved by the University of Utah Institutional Animal Care and Use Committee (18-10012).
as §1, §2

Entries after “also recorded” stand apart in the source; their conditions may differ.

Consider “CatG: serine protease cathepsin G released by activated neutrophils”, for which the “platelet aggregation, species comparison: rats” value in the test with rat washed platelets is “only induced platelet aggregation in humans and dogs”. Moreover, the “cleavage of PAR4-C peptide” value in the test with PAR4-C (SEQ ID NO: 8) was “cleavage between Ser67 (S67)-Arg68 (R68)”. The “platelet aggregation, species comparison: dogs” value in the test on dog washed platelets was “induced platelet aggregation; also recorded: not as responsive”.

As for thrombin, in the test with rat washed platelets, the “platelet aggregation, species comparison: rats” value is listed as “induced platelet aggregation”. The “cleavage of PAR4-C peptide” value on PAR4-C (SEQ ID NO: 8) is listed as “failed to cleave”. For the same substance, the “platelet aggregation, species comparison: dogs” value with dog washed platelets was “induced platelet aggregation”.

Source of the values: patent publication US12077607B2, “Functional and therapeutic effects of PAR4 cleavage by cathepsin G” (UNIVERSITY OF UTAH RESEARCH FOUNDATION, priority 2021, dated 2024).
